From the NIST ThermoML archive (doi:10.1016/j.tca.2013.06.031)

Experiment: mn = molality of the nth substance listed, in mol/kg
Conditions: 101 kPa, Liquid; for viscosity: Capillary tube (Ostwald / Ubbelohde) method; for mass density: Vibrating tube method

CO/N=C(\C(=O)N[C@@H]1C(=O)N2C(C(=O)[O-])=C(CSc3nc(C)c(CC(=O)[O-])s3)CS[C@H]12)c1csc(N)n1.[Na+].[Na+] + O
Conditions | mass density [kg/m3] | viscosity [mPa·s]
278.15 K, m1 = 0.01 | 1002.35 | 1.551
278.15 K, m1 = 0.03 | 1006.68 | 1.609
278.15 K, m1 = 0.05 | 1010.63 | 1.667
278.15 K, m1 = 0.07 | 1014.39 | 1.724
278.15 K, m1 = 0.09 | 1018.03 | 1.783
278.15 K, m1 = 0.11 | 1021.6 | 1.839
278.15 K, m1 = 0.13 | 1025.13 | 1.9
278.15 K, m1 = 0.15 | 1028.54 | 1.962
283.15 K, m1 = 0.01 | 1002.07 | 1.33
283.15 K, m1 = 0.03 | 1006.36 | 1.381
283.15 K, m1 = 0.05 | 1010.27 | 1.431
283.15 K, m1 = 0.07 | 1014 | 1.479
283.15 K, m1 = 0.09 | 1017.61 | 1.529
283.15 K, m1 = 0.11 | 1021.14 | 1.577
283.15 K, m1 = 0.13 | 1024.59 | 1.63
283.15 K, m1 = 0.15 | 1027.97 | 1.682
288.15 K, m1 = 0.01 | 1001.45 | 1.153
288.15 K, m1 = 0.03 | 1005.68 | 1.197
288.15 K, m1 = 0.05 | 1009.58 | 1.24
288.15 K, m1 = 0.07 | 1013.27 | 1.282
288.15 K, m1 = 0.09 | 1016.85 | 1.326
288.15 K, m1 = 0.11 | 1020.33 | 1.367
288.15 K, m1 = 0.13 | 1023.74 | 1.413
288.15 K, m1 = 0.15 | 1027.06 | 1.458
293.15 K, m1 = 0.01 | 1000.53 | 1.016
293.15 K, m1 = 0.03 | 1004.71 | 1.055
293.15 K, m1 = 0.05 | 1008.6 | 1.094
293.15 K, m1 = 0.07 | 1012.24 | 1.13
293.15 K, m1 = 0.09 | 1015.8 | 1.169
293.15 K, m1 = 0.11 | 1019.24 | 1.206
293.15 K, m1 = 0.13 | 1022.59 | 1.246
293.15 K, m1 = 0.15 | 1025.89 | 1.285
298.15 K, m1 = 0.01 | 999.36 | 0.9017
298.15 K, m1 = 0.03 | 1003.52 | 0.9359
298.15 K, m1 = 0.05 | 1007.36 | 0.9694
298.15 K, m1 = 0.07 | 1010.99 | 1.002
298.15 K, m1 = 0.09 | 1014.51 | 1.036
298.15 K, m1 = 0.11 | 1017.91 | 1.069
298.15 K, m1 = 0.13 | 1021.27 | 1.104
298.15 K, m1 = 0.15 | 1024.52 | 1.14
303.15 K, m1 = 0.01 | 997.94 | 0.8062
303.15 K, m1 = 0.03 | 1002.05 | 0.8369
303.15 K, m1 = 0.05 | 1005.88 | 0.8669
303.15 K, m1 = 0.07 | 1009.48 | 0.8964
303.15 K, m1 = 0.09 | 1012.96 | 0.9263
303.15 K, m1 = 0.11 | 1016.34 | 0.9559
303.15 K, m1 = 0.13 | 1019.64 | 0.9862
303.15 K, m1 = 0.15 | 1022.89 | 1.019
308.15 K, m1 = 0.01 | 996.31 | 0.7252
308.15 K, m1 = 0.03 | 1000.43 | 0.7532
308.15 K, m1 = 0.05 | 1004.18 | 0.7799
308.15 K, m1 = 0.07 | 1007.75 | 0.8066
308.15 K, m1 = 0.09 | 1011.2 | 0.8336
308.15 K, m1 = 0.11 | 1014.55 | 0.8594
308.15 K, m1 = 0.13 | 1017.85 | 0.8867
308.15 K, m1 = 0.15 | 1021.04 | 0.9172
313.15 K, m1 = 0.01 | 994.47 | 0.6576
313.15 K, m1 = 0.03 | 998.57 | 0.682
313.15 K, m1 = 0.05 | 1002.27 | 0.707
313.15 K, m1 = 0.07 | 1005.83 | 0.7314
313.15 K, m1 = 0.09 | 1009.24 | 0.7559
313.15 K, m1 = 0.11 | 1012.57 | 0.7783
313.15 K, m1 = 0.13 | 1015.83 | 0.8042
313.15 K, m1 = 0.15 | 1018.99 | 0.8303
